How the values were obtained:
Type in all cases: in vivo
[1] = test system: cocklebur (Xanthium strumarium); assay: Test B pre-/postemergence plant response
Method in brief: (§1)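 Each species received compound formulated in non-phytotoxic solvent with surfactant, either at planting into a loam and sand blend or as a foliar spray once plants reached 2 to 18 cm in peat-based medium. Plants stayed in the greenhouse 13 to 15 days before visual evaluation against controls, scored 0 (no effect) to 100 (complete control).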

[2] = test system: giant foxtail (Setaria faberii); assay: Test B pre-/postemergence plant response
Method in brief: as §1

corn (Zea mays) = assay: Test B pre-/postemergence plant response
Method in brief: as §1

soybean (Glycine max) = assay: Test B pre-/postemergence plant response
Method in brief: as §1

[3] = test system: lambsquarters (Chenopodium album); assay: Test B pre-/postemergence plant response
Method in brief: as §1

kochia (Kochia scoparia) = assay: Test B pre-/postemergence plant response
Method in brief: as §1

[4] = test system: ragweed (common ragweed, Ambrosia elatior); assay: Test B pre-/postemergence plant response
Method in brief: as §1

[5] = test system: johnsongrass (Sorghum halepense); assay: Test B pre-/postemergence plant response
Method in brief: as §1

[6] = test system: bermudagrass (Cynodon dactylon); assay: Test B pre-/postemergence plant response
Method in brief: as §1

wild oat (Avena fatua) = assay: Test B pre-/postemergence plant response
Method in brief: as §1

[7] = test system: pigweed (Amaranthus retroflexus); assay: Test B pre-/postemergence plant response
Method in brief: as §1

[8] = test system: green foxtail (Setaria viridis); assay: Test B pre-/postemergence plant response
Method in brief: as §1

[9] = test system: umbrella sedge (Cyperus difformis); assay: Test B flooded paddy test; conditions: for Plant response rating, Sedge, Umbrella: Flood (flooded paddy test), 13 to 15 days
Method in brief: (§2)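 Each compound is added to standing floodwater (3 cm above soil, maintained) in pots of 2-leaf-stage plants; greenhouse exposure lasts 13–15 d before visual comparison with controls on a 0–100 control scale.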

rice (Oryza sativa) = assay: Test B flooded paddy test; conditions: for Plant response rating, Rice: Flood (flooded paddy test), 13 to 15 days
Method in brief: as §2

[10] = test system: ducksalad (Heteranthera limosa); assay: Test B flooded paddy test; conditions: for Plant response rating, Ducksalad: Flood (flooded paddy test), 13 to 15 days
Method in brief: as §2

[11] = test system: barnyardgrass (Echinochloa crus-galli); assay: Test B flooded paddy test; conditions: for Plant response rating, Barnyardgrass: Flood (flooded paddy test), 13 to 15 days
Method in brief: as §2

[12] = 31 g ai/ha, postemergence, scale 0 to 100, 0 is no effect, 100 is complete control
[13] = 62 g ai/ha, postemergence, 0 is no effect, 100 is complete control, 13 to 15 days
[14] = Postemergence, 125 g ai/ha, visual rating after 13 to 15 days, scale 0 (no effect) to 100 (complete control)
[15] = Postemergence, 250 g ai/ha, scale 0 to 100 (0 no effect, 100 complete control)
[16] = 250 g ai/ha, flooded paddy test, visual rating on 0 to 100 scale (0 no effect, 100 complete control) after 13 to 15 days
[17] = 62 g ai/ha, scale of 0 to 100 where 0 is no effect and 100 is complete control
[18] = 125 g ai/ha, scale 0 to 100, 0 is no effect, 100 is complete control
[19] = Flood, 31 g ai/ha, scale 0 to 100 (0 no effect, 100 complete control)

CCCCCCn1c(-c2ccccc2)ncc(C(=O)C2=C(O)CCCC2=O)c1=O [Compound 94]
Plant response rating, Cocklebur [1, 12]: 45 | Cocklebur plant response rating (0 to 100 scale) [1, 13]: 45 | Plant response rating, Cocklebur [1, 14]: 60 | Plant response rating, Cocklebur [1, 15]: 90 | Plant response rating, Foxtail, Giant [2, 12]: 65 | Foxtail, Giant plant response rating (0 to 100 scale) [2, 13]: 75 | Plant response rating, Foxtail, Giant [2, 15]: 98 | Plant response rating, Corn (corn (Zea mays); [12]): 0 | Corn plant response rating (0 to 100 scale) (corn (Zea mays); [13]): 55 | Plant response rating, Corn (corn (Zea mays); [14]): 70 | Plant response rating, Corn (corn (Zea mays); [15]): 80 | Plant response rating, Soybean (soybean (Glycine max); [12]): 65 | Soybean plant response rating (0 to 100 scale) (soybean (Glycine max); [13]): 80 | Plant response rating, Soybean (soybean (Glycine max); [15]): 95 | Plant response rating, Lambsquarters [3, 12]: 80 | Lambsquarters plant response rating (0 to 100 scale) [3, 13]: 95 | Plant response rating, Lambsquarters [3, 15]: 100 | Kochia plant response rating (0 to 100 scale) (kochia (Kochia scoparia); [13]): 55 | Plant response rating, Kochia (kochia (Kochia scoparia); [15]): 90 | Plant response rating, Ragweed [4, 12]: 40 | Ragweed plant response rating (0 to 100 scale) [4, 13]: 45 | Plant response rating, Ragweed [4, 15]: 80 | Johnsongrass plant response rating (0 to 100 scale) [5, 13]: 15 | Plant response rating, Johnsongrass [5, 15]: 45 | Plant response rating, Bermudagrass [6, 12]: 80 | Bermudagrass plant response rating (0 to 100 scale) [6, 13]: 80 | Plant response rating, Bermudagrass [6, 14]: 98 | Plant response rating, Bermudagrass [6, 15]: 98 | Plant response rating, Oat, Wild (wild oat (Avena fatua); [12]): 0 | Oat, Wild plant response rating (0 to 100 scale) (wild oat (Avena fatua); [13]): 5 | Plant response rating, Oat, Wild (wild oat (Avena fatua); [15]): 30 | Plant response rating, Pigweed [7, 12]: 100 | Pigweed plant response rating (0 to 100 scale) [7, 13]: 100 | Plant response rating, Pigweed [7, 15]: 100 | Plant response rating, Foxtail, Green [8, 12]: 10 | Foxtail, Green plant response rating (0 to 100 scale) [8, 13]: 60 | Plant response rating, Foxtail, Green [8, 15]: 80 | Plant response rating, Flood, Sedge, Umbrella [9, 16]: 85 | Plant response rating, Sedge, Umbrella [9, 17]: 70 | Plant response rating, Sedge, Umbrella [9, 18]: 85 | Sedge, Umbrella plant response rating [9, 19]: 20 | Plant response rating, Flood, Rice (rice (Oryza sativa); [16]): 35 | Plant response rating, Rice (rice (Oryza sativa); [17]): 0 | Plant response rating, Rice (rice (Oryza sativa); [18]): 20 | Rice plant response rating (rice (Oryza sativa); [19]): 0 | Plant response rating, Flood, Ducksalad [10, 16]: 30 | Plant response rating, Ducksalad [10, 17]: 20 | Plant response rating, Ducksalad [10, 18]: 25 | Ducksalad plant response rating [10, 19]: 0 | Plant response rating, Flood, Barnyardgrass [11, 16]: 60 | Plant response rating, Barnyardgrass [11, 17]: 0 | Plant response rating, Barnyardgrass [11, 18]: 40 | Barnyardgrass plant response rating [11, 19]: 0
